The inhibition is the share of the control response that was lost under treatment.

Experiment [1] relates to TNFα production in RAW 264.7 macrophage cell line. Kind of experiment: Mouse TNF alpha quantification assay (LPS-stimulated macrophages, ELISA). In kind it is cell-based. Particulars: RAW264.7, RAW 264.7 murine leukemia virus transformed macrophage cell lines, LPS stimulation, read-out: TNF-α % Inhibition at 30 μM. (In general: ELISA stands for enzyme-linked immunosorbent assay.)

Experiment [2] concerns IL6 production in RAW 264.7 macrophage cell line. Kind of experiment: Mouse IL6 quantification assay (LPS-stimulated macrophages, ELISA). The conditions noted are these: RAW264.7, RAW 264.7 murine leukemia virus transformed macrophage cell lines, LPS stimulation, read-out: IL-6 % Inhibition at 30 μM. In kind it is cell-based.

With `O=C(c1csc2c(O)nc(-c3ccccn3)nc12)N1CC2CC1CN2c1ccccc1` (stereo not shown) [drawing 2231], the inhibition at 30 µM was 0% in experiment [1] and 51 to 75% in experiment [2].

As for `CCOC(=O)NC1CCN(C(=O)c2csc3c(O)nc(N)nc23)CC1` [drawing 2095], the inhibition at 30 µM in experiment [1] was 1 to 25%; in experiment [2], 0%.

For `CC(O)CNc1nc(-c2ccccn2)nc2scc(-c3ccccc3)c12` (stereo not shown) [drawing 2042], the inhibition at 30 µM in experiment [1] lay within 1 to 25%; in experiment [2], 26 to 50%.

On to `COc1nc(-c2ccccn2)nc(Oc2cccc(C(F)(F)F)c2)c1O` [drawing 2392], for which the inhibition at 30 µM in experiment [1] was 1 to 25%; in experiment [2] it was 0%.

For the compound `COc1cccc(N2CCN(C(=O)c3csc4c(O)nc(-c5ccccn5)nc34)CC2)c1` [drawing 2167], the inhibition at 30 µM in experiment [1] was 0%; in experiment [2], 26 to 50%.

As for `O=C(CCCc1cccnc1)N1CCCc2c(O)nc(-c3ccccn3)nc21` [drawing 2088], the values for the inhibition at 30 µM in experiment [1] and in experiment [2] were 1 to 25% and 76 to 100%, respectively.

Turning to `O=c1[nH]c(-c2ccccn2)nc2c([C@@H]3O[C@H](CO)[C@@H](O)[C@H]3O)csc12` [drawing 2354], the inhibition at 30 µM was 26 to 50% in experiment [1] and 1 to 25% in experiment [2].

On to `COC(=O)c1cc(NCc2nc(CC(C)C)no2)ccc1Cl` [drawing 2047], for which the inhibition at 30 µM in experiment [1] was 1 to 25%; in experiment [2], 26 to 50%.

Regarding `CN(C)CCOc1cccc(-c2csc3c(O)nc(-c4ccccn4)nc23)c1` [drawing 2323], the inhibition at 30 µM in experiment [1] and in experiment [2] was 76 to 100% in each case.

Turning to `COc1nc(-c2ccccn2)nc2c(C3CCC3)csc12` [drawing 2318], the inhibition at 30 µM in experiment [1] and in experiment [2] was 1 to 25% each time.

For the compound `COCCCCNC(=O)c1csc2nc(-c3ccccn3)nc(N3CCOCC3)c12` [drawing 2205], the inhibition at 30 µM in experiment [1] and in experiment [2] was 1 to 25% in each case.

Consider `Cc1nc(-c2ccccn2)nc(O)c1CCC(=O)NC1CCc2ccccc21` (stereo not shown) [drawing 2033], for which the inhibition at 30 µM in experiment [1] and in experiment [2] was 26 to 50% throughout.

In the case of `Cc1sc2nc(-c3ccccn3)nc(NCCCO)c2c1-c1ccccc1` [drawing 2045], the inhibition at 30 µM in experiment [1] and in experiment [2] was 1 to 25% in each case.

With `COCCNc1nc(-c2nccn2C)nc2sc(C)c(-c3ccccc3)c12` [drawing 2411], the figures for the inhibition at 30 µM in experiment [1] and in experiment [2] were 26 to 50% and 1 to 25%, respectively.

`Cc1ccc(-c2cc3nc(-c4ccccn4)nc(O)c3s2)cc1` [drawing 2382]: the inhibition at 30 µM in experiment [1] and in experiment [2] was 1 to 25% throughout.

Take `O=S1(=O)CCC(N2CCN(c3nc(-c4ccccn4)nc4scc(-c5ccccc5)c34)CC2)C1` (stereo not shown) [drawing 2145]: the inhibition at 30 µM in experiment [1] and in experiment [2] was 1 to 25% each time.

As to `COC(=O)c1sc2c(O)nc(-c3ccccn3)nc2c1C` [drawing 2314], the results for the inhibition at 30 µM in experiment [1] and in experiment [2] were 0% and 1 to 25%, respectively.

`O=C1CN(c2nc(-c3ccccn3)nc3scc(-c4ccccc4)c23)CCN1CCO` [drawing 2131]: the inhibition at 30 µM in experiment [1] and in experiment [2] was 1 to 25% throughout.

For the compound `O=C(COCc1ccncc1)Nc1nc(-c2ccccn2)nc2sccc12` [drawing 2221], the inhibition at 30 µM was in the range of 1 to 25% in experiment [1] and 76 to 100% in experiment [2].

As to `Nc1nc(O)c2scc(C(=O)N(CCO)CCOCCO)c2n1` [drawing 2096], the inhibition at 30 µM in experiment [1] is 0%; in experiment [2], 1 to 25%.

Consider `CC(C)Oc1ccc(-c2csc3c(O)nc(-c4nccn4C)nc23)cc1F` [drawing 2436], for which the inhibition at 30 µM in experiment [1] was 0%; in experiment [2], 1 to 25%.

For `O=C(c1csc2c(O)nc(-c3ccccn3)nc12)N1CCN(Cc2cccc(O)c2)CC1` [drawing 2169], the inhibition at 30 µM in experiment [1] was 1 to 25%; in experiment [2], 26 to 50%.

As to `COCCNc1nc(-c2nccn2C)nc2sc(-c3ccc(OC)cc3)c(-c3ccccc3)c12` [drawing 2424], the inhibition at 30 µM was 51 to 75% in experiment [1] and 76 to 100% in experiment [2].

For `CC1CN(c2ccccc2)CCN1C(=O)c1csc2c(O)nc(-c3ccccn3)nc12` (stereo not shown) [drawing 2186], the inhibition at 30 µM in experiment [1] lay in the range of 26 to 50%; in experiment [2] it was 76 to 100%.

For `CCC(C)c1csc2c(OC)nc(-c3ccccn3)nc12` (stereo not shown) [drawing 2310], the results for the inhibition at 30 µM in experiment [1] and in experiment [2] were 1 to 25% and 26 to 50%, respectively.

For `c1ccc(-c2csc3nc(-c4ccccn4)nc(NN4CCOCC4)c23)cc1` [drawing 2159], the inhibition at 30 µM in experiment [1] was 26 to 50%; in experiment [2], 51 to 75%.

On to `Cc1ccccc1C1CN(C(=O)c2csc3c(O)nc(-c4ccccn4)nc23)CCN1` (stereo not shown) [drawing 2199], for which the inhibition at 30 µM in experiment [1] lay within 1 to 25%; in experiment [2] it was 76 to 100%.

`CCOCCNc1nc(-c2nccn2C)nc2sc(-c3ccccc3)c(-c3ccccc3)c12` [drawing 2402]: the inhibition at 30 µM in experiment [1] and in experiment [2] was 76 to 100% throughout.

In the case of `O=C(CNc1nc(-c2ccccn2)nc2scc(-c3ccccc3)c12)NC1CC1` [drawing 2149], the inhibition at 30 µM in experiment [1] and in experiment [2] was 26 to 50% throughout.

Turning to `COc1ccccc1C1CC1C(=O)Nc1nnc(-c2ccccn2)[nH]1` (stereo not shown) [drawing 1986], the inhibition at 30 µM in experiment [1] was in the range of 1 to 25%; in experiment [2], 26 to 50%.

Regarding `O=C(Nc1nnc(-c2ccccn2)[nH]1)C1COc2ccccc2C1` (stereo not shown) [drawing 1955], the inhibition at 30 µM in experiment [1] fell in the range of 1 to 25%; in experiment [2], 26 to 50%.

Consider `O=C(c1csc2c(O)nc(-c3ccccn3)nc12)N1CCN(c2ccncc2)CC1` [drawing 2108], for which the inhibition at 30 µM in experiment [1] is 0%; in experiment [2], 1 to 25%.

`CC(C)C(=O)Nc1nc(CC(=O)Nc2nnc(-c3ccccn3)[nH]2)cs1` [drawing 1990]: the inhibition at 30 µM in experiment [1] was 1 to 25%; in experiment [2], 0%.

Turning to `N#Cc1ccc(COCC(=O)Nc2ccnc(-c3ccccn3)n2)cc1` [drawing 2208], the inhibition at 30 µM in experiment [1] and in experiment [2] was 1 to 25% throughout.

Regarding `CC(C)OCCNc1nc(-c2nccn2C)nc2sc(-c3ccccc3)c(-c3ccccc3)c12` [drawing 2394], the inhibition at 30 µM in experiment [1] and in experiment [2] was 1 to 25% throughout.

With `Cc1cc(OC(F)F)ccc1-c1csc2c(O)nc(-c3ccccn3)nc12` [drawing 2270], the inhibition at 30 µM in experiment [1] is 0%; in experiment [2], 76 to 100%.

Consider `O=C(Nc1nnc(-c2ccccn2)[nH]1)C1CC(=O)N(CCc2ccccc2)C1` (stereo not shown) [drawing 1958], for which the inhibition at 30 µM in experiment [1] is 0%; in experiment [2], 1 to 25%.

Turning to `CC(C)CNC(=O)CN1CCN(c2nc(-c3ccccn3)nc3scc(-c4ccccc4)c23)CC1` [drawing 2151], the inhibition at 30 µM in experiment [1] was in the range of 26 to 50%; in experiment [2], 76 to 100%.

Consider `COc1nc(-c2ccccn2)nc2c1c(-c1ccccc1)nn2-c1ccccn1` [drawing 2367], for which the inhibition at 30 µM in experiment [1] and in experiment [2] was 76 to 100% each time.

For the compound `COCCNc1nc(-c2nccn2C)nc2sc(-c3ccncc3)c(-c3ccccc3)c12` [drawing 2409], the inhibition at 30 µM in experiment [1] was 51 to 75%; in experiment [2] it was 76 to 100%.

`Oc1nc(-c2ccccn2)nc2c(-c3ccc4c(c3)CCCO4)csc12` [drawing 2294]: the results for the inhibition at 30 µM in experiment [1] and in experiment [2] were 0% and 1 to 25%, respectively.

Consider `O=C(Nc1nc(-c2ccccn2)cs1)c1ccncc1` [drawing 2019], for which the inhibition at 30 µM lay in the range of 1 to 25% in experiment [1] and 26 to 50% in experiment [2].

On to `Nc1nc(-c2ccccn2)nc2ccsc12` [drawing 2227], for which the inhibition at 30 µM in experiment [1] is 1 to 25%; in experiment [2] it was 0%.

In the case of `CC(C)(O)c1ccc(-c2csc3c(O)nc(-c4ccccn4)nc23)c(F)c1` [drawing 2272], the inhibition at 30 µM in experiment [1] and in experiment [2] was 76 to 100% in each case.

`Cc1cnc(-c2ccccn2)nc1NC(=O)C(C)c1ccc(C#N)cc1` (stereo not shown) [drawing 2209]: the inhibition at 30 µM in experiment [1] and in experiment [2] was 1 to 25% throughout.

In the case of `O=C(Nc1nnc(-c2ccccn2)[nH]1)c1ccc(Oc2ccccc2)nc1` [drawing 1956], the inhibition at 30 µM was in the range of 1 to 25% in experiment [1] and 26 to 50% in experiment [2].

For the compound `COCCCC1CCN(C(=O)c2csc3c(O)nc(N)nc23)CC1` [drawing 2092], the figures for the inhibition at 30 µM in experiment [1] and in experiment [2] were 1 to 25% and 0%, respectively.

Take `OCC1(c2ccc(-c3nc(-c4ccccn4)nc(O)c3Oc3ccccc3)cc2)CC1` [drawing 2361]: the inhibition at 30 µM in experiment [1] was 26 to 50%; in experiment [2], 0%.

With `Oc1nc(-c2ccccn2)nc2c3c(sc12)CNC3` [drawing 2315], the inhibition at 30 µM in experiment [1] was 1 to 25%; in experiment [2] it was 0%.

As to `COCCCC(=O)N1CCCc2c(O)nc(-c3ccccn3)nc21` [drawing 2080], the inhibition at 30 µM in experiment [1] is 1 to 25%; in experiment [2], 76 to 100%.

Take `CC(CO)Nc1nc(-c2nccn2C)nc2sc(-c3ccccc3)c(-c3ccccc3)c12` (stereo not shown) [drawing 2405]: the inhibition at 30 µM in experiment [1] was in the range of 1 to 25%; in experiment [2], 51 to 75%.

Turning to `Cc1c(-c2csc3c(O)nc(-c4ccccn4)nc23)cnn1C` [drawing 2327], the inhibition at 30 µM in experiment [1] fell in the range of 51 to 75%; in experiment [2] it was 76 to 100%.

Regarding `COc1ccc(-c2c(-c3ccccc3)sc3c(O)nc(-c4nccn4C)nc23)cn1` [drawing 2420], the inhibition at 30 µM in experiment [1] and in experiment [2] was 26 to 50% each time.

For `CC(C)Cc1csc2c(O)nc(-c3ccccn3)nc12` [drawing 2338], the inhibition at 30 µM in experiment [1] and in experiment [2] was 76 to 100% each time.

Consider `Oc1nc(-c2ccccn2)nc2c(-c3ccccn3)csc12` [drawing 2288], for which the inhibition at 30 µM in experiment [1] and in experiment [2] was 76 to 100% each time.

With `COc1ccnc(-c2nc(O)c3c(C#N)csc3n2)c1` [drawing 2203], the inhibition at 30 µM in experiment [1] is 0%; in experiment [2] it was 1 to 25%.
